Columns and labels:
LPS-induced TNFα release = assay: Lipopolysaccharide (LPS)-induced TNFα release assay in mice; type: in vivo; settings: 30 mg/kg po, female C3H mice, given 15 min prior to LPS 0.3 mg/kg ip, blood sampled 90 min later
Procedure: The administration of LPS induces the release of TNFα from white blood cells (monocytes, macrophages, Kupffer cells, etc) and endothelial cells into the blood. This is a model for cytokine release that occurs during inflammation. […] ASK1 mediates free radical pathways. Based on this mechanism, the blockade of ASK1 by specific inhibitors should reduce LPS-induced TNFα release in mice.
Female C3H mice (Elevage Janvier) (8 week old), received E. Coli's LPS (O111:B4, Sigma, 0.3 mg/kg, ip) after the administration of the test articles. Ninety min later, the animals were sacrificed and the blood was sampled. Plasma levels of TNFα were determined in serum using an ELISA kit (R&D). LPS was solubilized in sterile saline.
The test articles were suspended in 0.5% CMC/0.25% Tween 20 and administered 15 min prior the challenge of LPS by oral route at the doses of 3 to 30 mg/kg. Control animals received the vehicle. In time course experiments, the test articles were administered 15 min to 4 hrs prior the challenge of LPS. Dexamethasone (0.1 mg/kg, po) was used as reference.
The animals were divided into 5 groups (6 mice each group):
Inhibition of TNFα release was calculated as follows: % inhibition=100*([…])) Where TNFα 1=TNFα concentration in group 1 (pg/ml), TNFα X=TNFα concentration in group X (pg/ml).

human recombinant ASK1 = molecular target: T1, human recombinant ASK1 (Homo sapiens, UniProt Q99683); assay: Enzyme inhibition assay (in vitro ASK1 assay), luciferase-based measurement of remaining ATP; type: biochemical; settings: human recombinant ASK1, MBP and ATP as substrates, 180 minutes at 30° C.; triplicates on at least 2 separate occasions
T1 sequence (Q99683 1-1374): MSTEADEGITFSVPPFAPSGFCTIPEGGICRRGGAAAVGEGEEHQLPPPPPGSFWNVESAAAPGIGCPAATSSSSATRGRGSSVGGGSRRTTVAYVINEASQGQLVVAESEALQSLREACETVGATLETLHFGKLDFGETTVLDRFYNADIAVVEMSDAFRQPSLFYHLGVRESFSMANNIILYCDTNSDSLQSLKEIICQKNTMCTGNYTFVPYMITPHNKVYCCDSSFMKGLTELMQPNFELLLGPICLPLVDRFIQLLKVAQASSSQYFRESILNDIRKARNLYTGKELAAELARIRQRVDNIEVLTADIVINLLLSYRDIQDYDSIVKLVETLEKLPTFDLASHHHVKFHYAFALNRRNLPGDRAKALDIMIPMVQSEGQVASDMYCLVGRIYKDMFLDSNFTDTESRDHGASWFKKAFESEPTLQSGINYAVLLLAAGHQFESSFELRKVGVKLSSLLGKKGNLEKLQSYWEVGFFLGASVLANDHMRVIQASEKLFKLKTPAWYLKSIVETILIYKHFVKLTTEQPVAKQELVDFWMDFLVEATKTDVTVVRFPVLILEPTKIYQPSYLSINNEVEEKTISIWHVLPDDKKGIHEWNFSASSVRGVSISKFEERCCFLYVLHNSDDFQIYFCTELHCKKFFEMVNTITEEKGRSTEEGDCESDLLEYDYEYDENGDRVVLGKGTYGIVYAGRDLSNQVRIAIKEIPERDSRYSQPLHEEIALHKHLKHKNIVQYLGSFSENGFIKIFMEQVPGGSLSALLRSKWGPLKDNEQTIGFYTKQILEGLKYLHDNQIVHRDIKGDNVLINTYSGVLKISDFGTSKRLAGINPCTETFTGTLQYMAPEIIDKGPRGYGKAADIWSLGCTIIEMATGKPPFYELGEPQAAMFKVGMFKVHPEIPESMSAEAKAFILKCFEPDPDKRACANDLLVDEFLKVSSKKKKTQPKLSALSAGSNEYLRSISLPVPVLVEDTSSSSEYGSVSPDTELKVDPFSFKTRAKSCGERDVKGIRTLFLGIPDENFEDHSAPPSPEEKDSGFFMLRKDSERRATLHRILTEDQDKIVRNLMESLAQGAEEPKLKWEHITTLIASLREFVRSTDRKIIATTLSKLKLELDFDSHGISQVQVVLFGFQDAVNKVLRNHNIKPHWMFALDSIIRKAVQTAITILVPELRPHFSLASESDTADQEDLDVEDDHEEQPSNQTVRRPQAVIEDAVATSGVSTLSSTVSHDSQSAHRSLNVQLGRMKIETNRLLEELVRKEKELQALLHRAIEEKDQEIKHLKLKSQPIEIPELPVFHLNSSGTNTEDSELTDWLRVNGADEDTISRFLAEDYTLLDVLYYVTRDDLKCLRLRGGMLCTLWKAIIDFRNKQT
Procedure: Assays were performed in a 384 well plate (Corning, #3654) format, using the human recombinant ASK1 as an enzyme and MBP (myelin basic protein, Upstate/Millipore, #13-104) with ATP as substrates. Assay read out was the measurement of the amount of ATP remaining after stopping the reaction, using a luciferase-based kit from Cambrex.
Compounds to be tested were dissolved in 100% DMSO at a concentration of 10 mM. Subsequent dilutions were performed in 100% DMSO using a Biomek FX Workstation. 5 μL of diluted compound or vehicle (6% DMSO) was distributed to a 384 well plate. 5 μL of substrates (ATP 7.5 μM, MBP 450 ng/μL) diluted in ASK1 buffer (20 mM Tris HCl pH 7.4, 0.001% Brij35, 0.01% BSA, 5 mM MgCl2, 1 mM DL-Dithiothreitol) were added, followed by 5 μL at of human recombinant ASK1 enzyme (22.5 ng/mL) diluted in ASK1 buffer in order to start the reaction. The reaction ran for 180 minutes at 30° C. before the addition of 5 μL of stop solution (Cambrex, #LT23-231). 10 μL of Pklight ATP detection reagent (Cambrex #LT23-233) were added. After 120 min of incubation, luminescence was measured on a Perkin-Elmer Victor 2 spectrofluorimeter. The percentage of inhibition relative to the fluorescence observed in the presence of solvent (1% DMSO) alone was determined. The IC50 values for inhibition were determined in triplicates on at least 2 separate occasions.

Row | SMILES | IC50 (human recombinant ASK1) [nM] | % inhibition of LPS-induced TNFα release in mice (LPS-induced TNFα release) [%]
1 | O=C(Nc1nc2cccc(-c3ccoc3)n2n1)c1cccnc1 [Example 2, N-[5-(3-furyl)[1,2,4]triazolo[1,5-a]pyridin-2-yl]nicotinamide] | 700 ± 200 | 49 ± 8
2 | O=C(Nc1nc2cccc(NC3CC3)n2n1)c1cccnc1 [Example 30, N-[5-(cyclopropylamino)[1,2,4]triazolo[1,5-a]pyridin-2-yl]nicotinamide] | 1100 ± 500 | 43 ± 3
3 | COCCN(C)Cc1ccc(C(=O)Nc2nc3cccc(NC4CCCCC4)n3n2)cc1 [Example 130, N-[5-(cyclohexylamino)[1,2,4]triazolo[1,5-a]pyridin-2-yl]-4-{[(2-methoxyethyl)(methyl)amino]methyl}benzamide] | 531 ± 18 | –
4 | O=C(Nc1nc2cccc(NC3CCCCC3)n2n1)c1ccc(NCCCO)nc1 [Example 132, N-[5-(cyclohexylamino)[1,2,4]triazolo[1,5-a]pyridin-2-yl]-6-[(3-hydroxypropyl)amino]nicotinamide] | 91 ± 26 | –
5 | CN(C)Cc1ccc(C(=O)Nc2nc3cc(C(F)(F)F)cc(NC4CC4)n3n2)cc1 [Example 140, N-[5-(cyclopropylamino)-7-(trifluoromethyl)[1,2,4]triazolo[1,5-a]pyridin-2-yl]-4-[(dimethylamino)methyl]benzamide] | 1140 | –
6 | CCC(C)Nc1cc(Cl)cc2nc(NC(=O)c3ccc(NCCCO)nc3)nn12 (centres unmarked) [Example 169, N-[5-(sec-butylamino)-7-chloro[1,2,4]triazolo[1,5-a]pyridin-2-yl]-6-[(3-hydroxypropyl)amino]nicotinamide] | 119 ± 29 | –

More lines, main results first:

Row | IC50 (human recombinant ASK1) [nM] | SMILES | % inhibition of LPS-induced TNFα release in mice (LPS-induced TNFα release) [%]
7 | 2000 | COc1cc(-c2ccc3nc(NC(=O)c4ccc(CN5CCCCC5)cc4)nn3c2)ccc1O [Example 144, N-[6-(4-hydroxy-3-methoxyphenyl)[1,2,4]triazolo[1,5-a]pyridin-2-yl]-4-(piperidin-1-ylmethyl)benzamide] | –
8 | 138 ± 30 | COc1cc(-c2ccc3nc(NC(=O)c4ccc(CN5CCCC5=O)cc4)nn3c2)ccc1O [Example 146, N-[6-(4-hydroxy-3-methoxyphenyl)[1,2,4]triazolo[1,5-a]pyridin-2-yl]-4-[(2-oxopyrrolidin-1-yl)methyl]benzamide] | –
9 | 5500 | COc1cc(-c2ccc3nc(NC(=O)c4ccc(CN(C)C)cc4)nn3c2)ccc1O [Example 147, 4-[(dimethylamino)methyl]-N-[6-(4-hydroxy-3-methoxyphenyl)[1,2,4]triazolo[1,5-a]pyridin-2-yl]benzamide] | –

Source: patent US8263595B2, “Triazolopyridine compounds and their use as ask inhibitors” (Merck Serono SA, priority 2007, dated 2012)
